≈ marks a conversion by molar mass, not a printed value.
Assays:
Enterococcus faecalis [1] = experiment: Antibacterial activity against vancomycin-resistant Enterococcus faecalis ATCC 51299 assessed as inhibition of bacterial growth measured after 16 to 20 hrs by CLSI broth microdilution method; format: functional; details: time 16-20 hrs
Pseudomonas aeruginosa = experiment: Antibacterial activity against Pseudomonas aeruginosa ATCC 27853 assessed as inhibition of bacterial growth measured after 16 to 20 hrs by CLSI broth microdilution method; format: functional; details: time 16-20 hrs
Staphylococcus aureus = experiment: Antibacterial activity against methicillin-resistant Staphylococcus aureus ATCC 1556 assessed as inhibition of bacterial growth measured after 16 to 20 hrs by CLSI broth microdilution method; format: functional; details: time 16-20 hrs
Enterococcus faecalis [2] = experiment: Antibacterial activity against Enterococcus faecalis ATCC 19433 assessed as inhibition of bacterial growth measured after 16 to 20 hrs by CLSI broth microdilution method; format: functional; details: time 16-20 hrs
[3] = Toxicity in zebra fish embryo assessed as mortality at 33 ug/ml incubated for 48 hrs; parameters: species or system Danio rerio; details: zebrafish, dose 33 µg/ml
[4] = Toxicity in zebra fish embryo assessed as survival rate at 100 ug/ml incubated for 48 hrs; parameters: species or system Danio rerio; details: zebrafish, zebrafish embryos, at 100 µg/mL
[5] = Toxicity in zebra fish embryo assessed as mortality at 100 ug/ml incubated for 48 hrs; parameters: species or system Danio rerio; details: zebrafish, dose 100 µg/ml

Molecule | MIC (Enterococcus faecalis [1]) [µg/mL] | MIC (Pseudomonas aeruginosa) [µg/mL] | MIC (Staphylococcus aureus) [µg/mL] | MIC (Enterococcus faecalis [2]) [µg/mL] | Activity [3] | survival at 48 h, 100 ug/ml [4] [%] | Activity [5]
CC[C@@](C)(NC(=O)[C@H](CC(C)C)NC(=O)CNC(=O)[C@@](C)(CC)NC(=O)C(C)(C)NC(=O)C(C)(C)NC(=O)C(C)(C)NC(=O)[C@H](Cc1ccccc1)NC(C)=O)C(=O)NC(C)(C)C(=O)N1C[C@H](O)C[C@H]1C(=O)N[C@@H](CCC(N)=O)C(=O)N[C@](C)(CC)C(=O)N1C[C@H](O)C[C@H]1C(=O)NC(C)(C)C(=O)N[C@H](CO)Cc1ccccc1 | 64 (≈ 40.3 µM) | > 100 | 32 (≈ 20.2 µM) | 64 (≈ 40.3 µM) | Toxic |  | 
GENTAMICIN | 4 | 2 | 4 | 8 |  |  | 
CC[C@@](C)(NC(=O)[C@H](CC(C)C)NC(=O)CNC(=O)C(C)(C)NC(=O)C(C)(C)NC(=O)C(C)(C)NC(=O)C(C)(C)NC(=O)[C@@H](NC(C)=O)C(C)C)C(=O)NC(C)(C)C(=O)N1C[C@H](O)C[C@H]1C(=O)N[C@@H](CCC(N)=O)C(=O)N[C@](C)(CC)C(=O)N1C[C@H](O)C[C@H]1C(=O)NC(C)(C)C(=O)N[C@H](CO)Cc1ccccc1 | > 100 | > 100 | > 100 | > 100 |  | 70 | 
CC[C@@](C)(NC(=O)[C@H](CC(C)C)NC(=O)CNC(=O)C(C)(C)NC(=O)C(C)(C)NC(=O)C(C)(C)NC(=O)C(C)(C)NC(=O)[C@H](Cc1ccccc1)NC(C)=O)C(=O)NC(C)(C)C(=O)N1C[C@H](O)C[C@H]1C(=O)N[C@@H](CCC(N)=O)C(=O)N[C@](C)(CC)C(=O)N1C[C@H](O)C[C@H]1C(=O)NC(C)(C)C(=O)N[C@H](CO)Cc1ccccc1 | > 100 | > 100 | 64 (≈ 40.7 µM) | > 100 | Toxic |  | 
CC[C@@](C)(NC(=O)[C@H](CC(C)C)NC(=O)CNC(=O)C(C)(C)NC(=O)C(C)(C)NC(=O)C(C)(C)NC(=O)C(C)(C)NC(=O)[C@H](CC(C)C)NC(C)=O)C(=O)NC(C)(C)C(=O)N1C[C@H](O)C[C@H]1C(=O)N[C@@H](CCC(N)=O)C(=O)N[C@](C)(CC)C(=O)N1C[C@H](O)C[C@H]1C(=O)NC(C)(C)C(=O)N[C@H](CO)Cc1ccccc1 | > 100 | > 100 | > 100 | > 100 |  |  | Toxic
CC[C@@](C)(NC(=O)[C@H](CC(C)C)NC(=O)CNC(=O)[C@@](C)(CC)NC(=O)C(C)(C)NC(=O)C(C)(C)NC(=O)C(C)(C)NC(=O)[C@H](CC(C)C)NC(C)=O)C(=O)NC(C)(C)C(=O)N1C[C@H](O)C[C@H]1C(=O)N[C@@H](CCC(N)=O)C(=O)N[C@](C)(CC)C(=O)N1C[C@H](O)C[C@H]1C(=O)NC(C)(C)C(=O)N[C@H](CO)Cc1ccccc1 | > 100 | > 100 | > 100 | > 100 |  |  | Toxic
CC(=O)O[C@H]1C[C@@]2(C)[C@@H](CC[C@H]3[C@@]4(C)C=CC(=O)[C@@H](C)[C@@H]4[C@H](OC(C)=O)C(=O)[C@@]32C)/C1=C(\CCC=C(C)C)C(=O)O [HELVOLIC ACID] | 8 (≈ 14.1 µM) | > 100 | 4 (≈ 7.03 µM) | 16 (≈ 28.1 µM) |  |  | 
CC[C@@](C)(NC(=O)[C@H](CC(C)C)NC(=O)CNC(=O)[C@@](C)(CC)NC(=O)C(C)(C)NC(=O)C(C)(C)NC(=O)C(C)(C)NC(=O)[C@@H](NC(C)=O)C(C)C)C(=O)NC(C)(C)C(=O)N1C[C@H](O)C[C@H]1C(=O)N[C@@H](CCC(N)=O)C(=O)N[C@](C)(CC)C(=O)N1C[C@H](O)C[C@H]1C(=O)NC(C)(C)C(=O)N[C@H](CO)Cc1ccccc1 | > 100 | > 100 | > 100 | > 100 |  | 75 | 

Reference: ChEMBL document CHEMBL4837185, “Emerimicins V-X, 15-Residue Peptaibols Discovered from an Acremonium sp. through Integrated Genomic and Chemical Approaches” (J Nat Prod, 2021)
